Like-named read-outs stand apart in the source and are kept apart here.
Tests used:
SW620 = experiment: In vitro anti-tumor activity evaluation test (CCK-8), SW620; type: cell-based, human; conditions: for IC50: read-out: IC50 against different tumor cell lines; for inhibition at 1 µM: read-out: Inhibitory rates against tumor cell lines
Description: (§1) • (1) Cells were digested and counted. Cell suspensions (H520, SW620 5.0×10^4 cells/mL, and U87MG 3.5×10^4 cells/mL) were prepared. 100 μL of cell suspension was added to each well of a 96-well cell culture plate. • (2) The 96-well cell culture plate was incubated in a 37° C., 5%, CO2 incubator for 24 h. • (3) A drug was diluted with a culture medium to a desired working solution concentration. 100 μL of the corresponding drug-containing culture medium was added to each well. At the same time, a negative control group and a positive control group were set up. • (4) The 96-well cell culture plate was incubated in a 37° C., 5%, CO2 incubator for 72 h. • (5) The 96-well plate was stained with CCK-8, and at λ=450 nm, the OD value was determined. • 1) 10 μL of CCK-8 was added to each well. The culture plate continued to be incubated in the incubator for 2-3 h. • 2) The culture plate was rocked for 10 min to gently mix and remove air bubbles from the 96-well plate. • 3) At λ=450 nm, the OD value of each well was read by the enzyme marker, and the inhibitory rates were calculated. • (6) According to the following equation (1), the growth inhibitory rate of the tumor cells was obtained. The obtained results were substituted into an IC 50 calculation software SPSS17.0 to find out the IC50 value.

U87MG = experiment: In vitro anti-tumor activity evaluation test (CCK-8), U87MG; type: cell-based, human; conditions: 72 h; for IC50: read-out: IC50 against different tumor cell lines; for inhibition at 1 µM: read-out: Inhibitory rates against tumor cell lines
Description: as §1

NCI-H520 = experiment: In vitro anti-tumor activity evaluation test (CCK-8), NCI-H520; type: cell-based, human; conditions: for IC50: read-out: IC50 against different tumor cell lines; for inhibition at 1 µM: read-out: Inhibitory rates against tumor cell lines
Description: as §1

[1] = In vitro NO release test (incubation with L-cysteine, OD at 550 nm); conditions: 100 μM solution with cysteine solution, 37° C.
Description: • (1) Sodium nitrite solutions with different concentrations were prepared. A calibration curve was drawn. • (2) The sample was treated. A 100 μM solution was prepared. 2.5 mL of the prepared compound solution and 2.5 mL of the cysteine solution were taken and incubated at 37° C. for 120 min, and the resulting mixture was sampled at different time points. • (3) A blank hole and a standard hole were set. 160 μL of the sample was collected and mixed evenly with 0.08 mL of a developer and stood at 37° C. for 15 min. At λ=550 nm, the OD value of absorbance was measured by the enzyme marker. The NO release levels were obtained by substituting the value into the standard curve.

[2] = Homo sapiens, SW-620, SW620, 1 μM, 72 h
[3] = Homo sapiens, U-87 MG, U87MG, 1 μM
[4] = Homo sapiens, NCI-H520, 1 μM, 72 h

| IC50 (U87MG; Homo sapiens, U-87 MG, U87MG) | SMILES | inhibition at 1 µM (SW620; [2]) | NO-release concentrations ([1]; 5 min) | NO-release concentrations ([1]; 10 min) | NO-release concentrations ([1]; 20 min) | NO-release concentrations ([1]; 30 min) | NO-release concentrations ([1]; 60 min) | NO-release concentrations ([1]; 90 min) | NO-release concentrations ([1]; 120 min) | inhibition at 1 µM (U87MG; [3]) | inhibition at 1 µM (NCI-H520; [4]) | also measured |
| --- | --- | --- | --- | --- | --- | --- | --- | --- | --- | --- | --- | --- |
| 358 ± 23 nM | C=C[C@]1(C)CC[C@@H](C(=C)CN(C)CCOC(=O)CCCC(=O)OCCOc2no[n+]([O-])c2S(=O)(=O)c2ccccc2)C[C@H]1C(=C)CCl [Example 2, 4-(2-((5-(2-((2-((1R,3R,4S)-3-(3-chloroprop-1-en-2-yl)-4-methyl-4-vinylcyclohexyl)allyl)(methyl)amino)ethyoxyl)-5-oxopentanoyl)oxy)ethyoxyl)-3-(phenylsulfonyl)-1,2,5-oxadiazole 2-oxide] | 42.3 ± 3.7% | 2.10 µM | 2.40 µM | 2.84 µM | 3.79 µM | 6.74 µM | 10.72 µM | 14.97 µM | 56 ± 2.1% | 48.5 ± 3% | IC50 (NCI-H520; Homo sapiens, NCI-H520, 72 h): 777 ± 24 nM |
| 369 ± 25 nM | C=C[C@]1(C)CC[C@@H](C(=C)CN(CCOC(=O)CCC(=O)OCCOc2no[n+]([O-])c2S(=O)(=O)c2ccccc2)C(C)C)C[C@H]1C(=C)CCl [Example 5, 4-(2-((4-(2-((2-((1R,3R,4S)-3-(3-chloroprop-1-en-2-yl)-4-methyl-4-vinylcyclohexyl)allyl)(isopropyl)amino)ethyoxyl)-4-oxobutanoyl)oxy)ethyoxyl)-3-(phenylsulfonyl)-1,2,5-oxadiazole 2-oxide] | 33 ± 2.5% | 0.59 µM | 41.61 µM | 48.58 µM | 2.57 µM | 5.58 µM | 9.22 µM | 13.64 µM | 47.1 ± 0.9% | 44.2 ± 1.3% |  |
| 366 ± 19 nM | C=C[C@]1(C)CC[C@@H](C(=C)CN(CCOC(=O)CCCC(=O)OCCOc2no[n+]([O-])c2S(=O)(=O)c2ccccc2)C(C)C)C[C@H]1C(=C)CCl [Example 6] | 35.6 ± 2.8% | 3.38 µM | 5.87 µM | 4.62 µM | 6.22 µM | 9.97 µM | 15.53 µM | 20.60 µM | 54.3 ± 1.3% | 43.4 ± 1.5% |  |
| 323 ± 13 nM | C=C[C@]1(C)CC[C@@H](C(=C)CN2CC[C@H](OC(=O)CCC(=O)OCCOc3no[n+]([O-])c3S(=O)(=O)c3ccccc3)C2)C[C@H]1C(=C)CCl [Example 9, 4-(2-((4-(((S)-1-(2-((1R,3R,4S)-3-(3-chloroprop-1-en-2-yl)-4-methyl-4-vinylcyclohexyl)allyl)pyrrolidine-3-ly)oxy)-4-oxobutanoyl)oxy)ethyoxyl)-3-(phenylsulfonyl)-1,2,5-oxadiazole 2-oxide] | 39.3 ± 4.2% | 3.25 µM | 3.90 µM | 5.98 µM | 7.59 µM | 11.11 µM | 17.29 µM | 23.48 µM | 51.3 ± 1.3% | 44.5 ± 2.8% |  |
| 343 ± 29 nM | C=C[C@]1(C)CC[C@@H](C(=C)CN2CC[C@H](OC(=O)CCCC(=O)OCCOc3no[n+]([O-])c3S(=O)(=O)c3ccccc3)C2)C[C@H]1C(=C)CCl [Example 10] | 45.9 ± 3.9% | 8.39 µM | 9.44 µM | 10.65 µM | 12.22 µM | 18.15 µM | 26.49 µM | 34.97 µM | 53.1 ± 1.4% | 46.7 ± 2% | IC50 (SW620; Homo sapiens, SW-620, SW620, 72 h): 1020 ± 90 nM; IC50 (NCI-H520; Homo sapiens, NCI-H520, 72 h): 848 ± 53 nM |

More lines, now with the values behind:

| SMILES | IC50 (U87MG; Homo sapiens, U-87 MG, U87MG) | inhibition at 1 µM (SW620; [2]) | NO-release concentrations ([1]; 5 min) | NO-release concentrations ([1]; 10 min) | NO-release concentrations ([1]; 20 min) | NO-release concentrations ([1]; 30 min) | NO-release concentrations ([1]; 60 min) | NO-release concentrations ([1]; 90 min) | NO-release concentrations ([1]; 120 min) | inhibition at 1 µM (U87MG; [3]) | inhibition at 1 µM (NCI-H520; [4]) | also measured |
| --- | --- | --- | --- | --- | --- | --- | --- | --- | --- | --- | --- | --- |
| C=CC1(C)CCC(C(=C)CCl)CC1C(=C)CCl (stereo not drawn) [13,14-dichloro-β-elemene, reference compound] |  |  |  |  |  |  |  |  |  |  |  | Inhibitory rates against tumor cell lines (SW620; SW620, 1 μM, 72 h): 3.3 ± 1.0%; IC50 (SW620; SW620, 72 h): > 100000 nM; Inhibitory rates against tumor cell lines (U87MG; U87MG, 1 μM): 3.5 ± 1.0%; IC50 (U87MG; U87MG): > 100000 nM; Inhibitory rates against tumor cell lines (NCI-H520; NCI-H520, 1 μM, 72 h): 0.9 ± 3.0%; IC50 (NCI-H520; NCI-H520, 72 h): > 100000 nM |
| C=C[C@]1(C)CC[C@@H](C(=C)CN(C)CCOC(=O)CCC(=O)OCCOc2no[n+]([O-])c2S(=O)(=O)c2ccccc2)C[C@H]1C(=C)CCl [Example 1, 4-(2-((4-(2-((2-((1R,3R,4S)-3-(3-chloroprop-1-en-2-yl)-4-methyl-4-vinylcyclohexyl))(methyl)amino)ethyoxyl)-4-oxobutanoyl)oxy)ethyoxyl)-3-(phenylsulfonyl)-1,2,5-oxadiazole 2-oxide] |  | 30.7 ± 3.5% | 1.73 µM | 2.31 µM | 2.90 µM | 4.04 µM | 7.76 µM | 12.67 µM | 17.21 µM | 39.5 ± 2.1% | 28.8 ± 0.8% |  |
| C=C[C@]1(C)CC[C@@H](C(=C)CN(C)CCOC(=O)CCC(=O)OCC#CCOc2no[n+]([O-])c2S(=O)(=O)c2ccccc2)C[C@H]1C(=C)CCl [Example 3, 4-((4-((4-(2-((2-((1R,3R,4S)-3-(3-chloroprop-1-en-2-yl)-4-methyl-4-vinylcyclohexyl)allyl)(methyl)amino)ethyoxyl)-4-oxobutanoyl)oxy)but-2-yn-1-yl)oxy)-3-(phenylsulfonyl)-1,2,5-oxadiazole 2-oxide] |  | 30.1 ± 5.2% | 10.78 µM | 12.02 µM | 15.83 µM | 19.79 µM | 32.99 µM | 48.39 µM | 58.84 µM | 34.9 ± 0.6% | 35 ± 2.2% |  |
| C=C[C@]1(C)CC[C@@H](C(=C)CN(CCOC(=O)CCC(=O)OCC#CCOc2no[n+]([O-])c2S(=O)(=O)c2ccccc2)C(C)C)C[C@H]1C(=C)CCl [Example 7, 4-((4-((4-(2-((2-((1R,3R,4S)-3-(3-chloroprop-1-en-2-yl)-4-methyl-4-vinylcyclohexyl)allyl)(isopropyl)amino)ethyoxyl)-4-oxobutanoyl)oxy)but-2-yn-1-yl)oxy)-3-(phenylsulfonyl)-1,2,5-oxadiazole 2-oxide] |  |  |  |  |  |  |  |  |  |  |  | IC50 (SW620; Homo sapiens, SW-620, 72 h): 1110 ± 115 nM; inhibition at 1 µM (SW620; Homo sapiens, SW-620, 72 h): 46.6 ± 1.2%; IC50 (U87MG; Homo sapiens, U-87 MG): 882 ± 34 nM; inhibition at 1 µM (U87MG; Homo sapiens, U-87 MG): 56.7 ± 0.9%; inhibition at 1 µM (NCI-H520; Homo sapiens, NCI-H520, 72 h): 44.5 ± 2.2% |
| C=C[C@]1(C)CC[C@@H](C(=C)CN(CCOC(=O)CCCC(=O)OCC#CCOc2no[n+]([O-])c2S(=O)(=O)c2ccccc2)C(C)C)C[C@H]1C(=C)CCl [Example 8] |  | 10.8 ± 3.2% | 10.55 µM | 12.34 µM | 15.52 µM | 18.95 µM | 29.50 µM | 43.00 µM | 55.33 µM | 4.5 ± 1% | 5.6 ± 1.6% |  |
